“And” between values parts separate entries of the source, which are not always exact repeats. Equal values may be shown once.
Key:
[1] = Solubility of complexes in isohexane (Method 1 or Method 2); format: physicochemical; conditions: ambient temperature (20° C.-25° C.), mass includes residual solvent
Method: Solubility studies for all other complexes were performed using material as synthesized. […] Solvents used were sparged with nitrogen (30-60 minutes) and dried over 3 Å mole sieves. Unless stated otherwise all measurements were performed at ambient temperature (20° C.-25° C.).
General procedure: Solubility was determined using the following Method 1 or Method 2. For calculations, a value of 0.672 g/mL was used for the density of isohexane.
Method 1: A tared vial was loaded with a small amount of the complex (actual mass recorded, including any residual solvent as noted above, typically 5-30 mg). Then a small stir bar (8 mm) was added. Solvent was then added and the mixture was stirred rapidly (1000 rpm). […] This process was repeated until either a clear solution was obtained (no visible solids or murkiness) or the vial was full. As the mixture approached homogeneity (i.e., few remaining solids observed) the volume of the solvent additions was kept small (<1 mL) to minimize excess beyond the solvent required to achieve homogeneity. The stir bar was then removed and the mass of the mixture was measured. If a clear solution had formed then the solubility of the complex was calculated as a single value, based on the mass of complex and the amount of solvent added to achieve a homogeneous solution. If the mixture remained heterogeneous (visible solids or murky), then the value reported is given as being “less than” the calculated value.
Method 2: A measured amount of complex (actual mass recorded, including any residual solvent as noted above) was added to a tared vial, followed by a stir bar. Dry isohexanes were added in small portions and the resulting mixture was stirred after each portion of isohexanes. If a clear solution had formed then the solubility was reported as a range, the lower bound of solubility calculated using the total solvent added to achieve a homogenous solution and the upper bound of solubility calculated using the total solvent measured prior to achieving a homogenous solution. If the mixture remained heterogeneous (visible solids or murky), the upper bound of solubility was calculated using the total solvent added. Formula used to calculate solubility are listed below. Solvent present in the complex is included in the mass and formula weight of the complexes.

[2] = Propylene polymerization (PP) in small-scale autoclave reactors: yield, quench time, catalyst activity
Text: Solutions of the pre-catalysts were made using toluene (ExxonMobil Chemical—anhydrous, stored under N2) (98%) or isohexane (ExxonMobil Chemical—polymerization grade, and purified as described below). Pre-catalyst solutions were typically 0.25 mmol/L.
Solvents, polymerization grade toluene and/or isohexanes were supplied by ExxonMobil Chemical Co. and are purified by passing through a series of columns: two 500 cc Oxyclear cylinders in series from Labclear (Oakland, Calif), followed by two 500 cc columns in series packed with dried […] (8-12 mesh; Aldrich Chemical Company), and two 500 cc columns in series packed with dried 5 Å mole sieves (8-12 mesh; Aldrich Chemical Company).
Polymerization grade propylene (C3) was used and further purified by passing it through a series of columns: 2250 cc Oxiclear cylinder from Labclear followed by a 2250 cc column packed with 3 Å mole sieves (8-12 mesh; Aldrich Chemical Company), then two 500 cc columns in series packed with 5 Å mole sieves (8-12 mesh; Aldrich Chemical Company), then a 500 cc column packed with Selexsorb CD (BASF), and finally a 500 cc column packed with Selexsorb COS (BASF).
Activation of the pre-catalysts was either by dimethylanilinium tetrakisperfluorophenylborate (Boulder Scientific or Albemarle Corp; Act ID=A) or is (hydrogenated tallow alkyl)methylammonium tetrakis(pentafluorophenyl)borate supplied as a 10 wt % solution in methylcyclohexane (Boulder Scientific; Act ID=B). Activators were typically used as a 0.25 mmol/L solution in toluene or isohexane.
Tri-n-octylaluminum (TnOAl or TNOA, Neat, AkzoNobel) was also used as a scavenger prior to introduction of the activator and pre-catalyst into the reactor. TNOA was typically used as a 5 mmol/L solution in toluene or isohexane.
Polymerizations were conducted in an inert atmosphere (N2) drybox using autoclaves equipped with an external heater for temperature control, glass inserts (internal volume of reactor=23.5 mL for C2 and C2/C8; 22.5 mL for C3 runs), septum inlets, regulated supply of nitrogen, ethylene and propylene, and equipped with disposable PEEK mechanical stirrers (800 RPM). The autoclaves were prepared by purging with dry nitrogen at 110° C. or 115° C. for 5 hours and then at 25° C. for 5 hours.
The reactor was prepared as described above, then heated to 40° C., and then purged with propylene gas at atmospheric pressure. Toluene or isohexanes, liquid propylene (1.0 mL) and scavenger (TNOA, 0.5 μmol) were added via syringe. The reactor was then brought to process temperature (70° C. or 100° C.) while stirring at 800 RPM. The activator solution, followed by the pre-catalyst solution, were injected via syringe to the reactor at process conditions. Reactor temperature was monitored and typically maintained within +/−1° C. Polymerizations were halted by addition of approximately 50 psi compressed dry air gas mixture to the autoclaves for approximately 30 seconds. The polymerizations were quenched based on a predetermined pressure loss (maximum quench value) or for a maximum of 30 minutes. The reactors were cooled and vented. The polymers were isolated after the solvent was removed in-vacuo. The actual quench time (s) is reported as quench time (s). Yields reported include total weight of polymer and residual catalyst. Catalyst activity is reported as grams of polymer per mmol transition metal compound per hour of reaction time (g/mmol·hr).
Polymerization results are collected in Tables 2 below. “Ex #” stands for example number. Example numbers starting with a “C” are comparative examples. “Cat ID” identifies the pre-catalyst used in the experiment. Corresponding numbers identifying the pre-catalyst (also referred to as pre-catalyst, catalyst, complex or compound) are located in the synthetic experimental section. T(° C.) is the polymerization temperature which was typically maintained within +/−1° C. “Yield” is polymer yield, and is not corrected for catalyst residue. […]

[3] = DSC melting point of polymers (TA-Q100); format: physicochemical
Method: Differential Scanning Calorimetry (DSC) measurements were performed on a TA-Q100 instrument to determine the melting point of the polymers. Samples were pre-annealed at 220° C. for 15 minutes and then allowed to cool to room temperature overnight. The samples were then heated to 220° C. at a rate of 100° C./minute and then cooled at a rate of 50° C./minute. Melting points were collected during the heating period. The results are reported in the Table 2 under the heading, Tm (° C.).

Structure (SMILES)	Solubility (s) in Isohexane (wt %) [1]	Activity ([2]; activator B, T 70° C.)	Activity ([2]; activator B, T 100° C.)	Tm ([3]; polypropylene made with activator A at 70° C.)	Tm ([3]; polypropylene made with activator A at 100° C.)	Tm ([3]; polypropylene made with activator B at 70° C.)	Tm ([3]; polypropylene made with activator B at 100° C.)	Solubility (s) in Isohexane [1]	Activity ([2]; activator A, T 70° C.)	Tm ([3]; polymer made with activator A, T 70 ° C.)	Tm ([3]; polymer made with activator A, T 100 ° C.)	Tm ([3]; polymer made with activator B, T 70 ° C.)	Tm ([3]; polymer made with activator B, T 100 ° C.)
CC(C)(C)c1cc2c(c(C34CC5CC(CC(C5)C3)C4)c1)[O][Zr-]1([CH3])([CH3])[O]c3c(cc(C(C)(C)C)cc3C34CC5CC(CC(C5)C3)C4)-c3ccccc3-c3cccc([n+]31)-c1ccccc1-2 [Complex 2]	0.081 wt %	2,069,268 g P/mmol cat • hr and 4,201,200 g P/mmol cat • hr and 3,074,182 g P/mmol cat • hr	2,345,000 g P/mmol cat • hr and 2,682,545 g P/mmol cat • hr and 2,225,032 g P/mmol cat • hr	147.1 °C and 148.3 °C	147.6 °C and 145.6 °C and 146.6 °C	148.8 °C and 149.3 °C and 148.6 °C	148.0 °C and 147.3 °C						
Cc1cc2[n+]3c(c1)-c1ccccc1-c1cc(C(C)(C)C)cc(C45CC6CC(CC(C6)C4)C5)c1[O][Zr-]3([CH3])([CH3])[O]c1c(cc(C(C)(C)C)cc1C13CC4CC(CC(C4)C1)C3)-c1ccccc1-2 [Complex 3]	<0.5 wt %	1,030,400 g P/mmol cat • hr and 1,074,880 g P/mmol cat • hr and 1,034,182 g P/mmol cat • hr	844,235 g P/mmol cat • hr and 476,276 g P/mmol cat • hr and 766,154 g P/mmol cat • hr					<3.2 mM	1,623,360 g P/mmol cat • hr and 2,345,333 g P/mmol cat • hr	150.4 °C and 150.9 °C	149.4 °C and 148.1 °C and 150.1 °C	150.5 °C and 150.9 °C	148.9 °C and 149.8 °C
